Experimental findings from a melting point compilation (Tetko et al.; mined from patent text by program, amines drawn as free bases though some values may be those of a salt) are described below.

For orientation: melting point means the temperature, or range, at which the solid turns liquid. `CCCC1=Cc2c3c(c(C)c(C)c2C1=O)OC(C(=O)O)C3` (stereo not drawn) showed a melting point of 212 °C.

`CC(O)CN1CCN(c2cccc3c2OCCO3)CC1` (stereo not drawn) gave a melting point of 92 °C.

Compound `CCOC(=O)Cc1c(C(=O)O)c(Br)c(C(=O)c2ccc(Cl)cc2)n1C` returned a melting point of 183 to 185 °C.

Turning to `Cc1c(Cl)ccc(Br)c1Cl`, the melting point fell in the range of 32 to 33 °C.

As for `CC(C)[C@H](NC(=O)N(C)Cc1ccccn1)C(=O)N[C@@H](Cc1ccccc1)[C@@H](O)C[C@H](Cc1ccccc1)NC(=O)OC(C)(C)C`, the melting point was in the range of 84 to 85 °C.

`CN1CCN(c2ccc([N+](=O)[O-])c(C(=O)O)c2)CC1` displayed a melting point of 212 °C.

The compound `COC(=O)[C@@H](N)Cc1cc(I)c(Oc2ccc(O)cc2)c(I)c1` displayed a melting point of 173 °C.

`CCCOc1ccc(-c2ncccc2S(=O)(=O)Nc2ncc(C)nc2OC)cc1`: the melting point lay in the range of 134 to 135 °C.

In the case of `CCCOC(=O)c1ccc(OC(=O)c2ccccc2C(=O)Oc2ccc(C(=O)OCCC)cc2)cc1`, the melting point lay in the range of 87 to 89 °C.

For the compound `O=C1c2c(O)cccc2C(SCCO)c2cccc(O)c21`, the melting point was 146 to 147 °C.

Regarding `COC(=NO)c1cccc2[nH]cc(C=O)c12`, the melting point was in the range of 178 to 179 °C.

As for `Cc1cc(NS(=O)(=O)c2ccccc2)cc(C)c1S(=O)C[N+](=O)[O-]` (stereo not drawn), the melting point was above 50 °C.

Consider `Cc1cc(C#N)cn2cc(-c3ccc(-c4ccc(C#N)cc4)o3)nc12`, for which the melting point fell in the range of 276 to 277 °C.

On to `Cn1ccc(=O)c(OCc2ccccc2)c1C(O)c1ccc2c(c1)OCO2` (stereo not drawn), for which the melting point was in the range of 230 to 232 °C.

In turn, `CCOC1(C#N)NC(=O)C(=O)NC1(C#N)OCC` (stereo not drawn) yielded a melting point of 205 to 208 °C.

On to `O=C(Cc1ccccc1)NCc1cccc2c1CN(C1CCC(=O)NC1=O)C2=O` (stereo not drawn), for which the melting point was in the range of 236 to 238 °C.

In turn, `Cc1noc(NS(=O)(=O)c2ccc(-c3ccc(C(F)(F)F)cc3)s2)c1Br` yielded a melting point of 132 °C.

With `COCCOCCOCCOCC(N)C(=O)O` (stereo not drawn), the melting point fell in the range of 184 to 185 °C.

`Cc1ccc(N(CCN2CCC(C(=O)c3ccc(F)cc3)CC2)C(=O)c2ccc([N+](=O)[O-])cc2)cc1`: the melting point lay within 175 to 178 °C.

As for `CC(=O)c1cccc(SCCCc2cn(S(=O)(=O)N(C)C)cn2)c1`, the melting point fell in the range of 122 to 124 °C.

`CCCCCCc1cc(C(=O)OCC)c(-c2ccccc2)c(-c2ccccc2)c1C(=O)OCC`: the melting point fell in the range of 119 to 121 °C.

`NCc1cccc(-c2cnc(-c3ccc(Cl)c(Cl)c3)[nH]2)c1` showed a melting point above 250 °C.

The compound `CCNC(=O)CC1CCN(Cc2cnc3cc(NC(=O)c4ccc(-c5ccc(F)cc5)cc4)c(C)cc3c2)CC1` gave a melting point of 251 °C.

`CCOC(=O)C(CCc1ccccc1)NC1CSC(c2cccs2)CN(CC(=O)O)C1=O` (stereo not drawn) returned a melting point of 168 °C.

`N#Cc1nn(-c2c(Cl)cc(C(F)(F)F)cc2Cl)c(N)c1C=NO` came in with a melting point of 175 to 178 °C.

Consider `CC(=O)Nc1c[nH]c(=S)n1C1CCc2ccccc2C1` (stereo not drawn), for which the melting point was in the range of 196 to 200 °C.

`CCOC(=O)c1cc(-n2c(=O)cc(C)[nH]c2=O)ccc1Cl` registered a melting point of 220 to 223 °C.

As to `O=C(O)CCc1ccc(-c2ccccc2)cc1`, the melting point was 143 to 149 °C.

Consider `O=C(O)CCCc1cc(C(c2cc(F)ccc2F)S(=O)(=O)c2ccc(Cl)cc2)c(Cl)cn1` (stereo not drawn), for which the melting point fell in the range of 147 to 148 °C.

On to `COC(=O)c1cccc(C(=O)c2cc(C(=O)OC)cc(OC)c2OC)c1`, for which the melting point fell in the range of 160 to 161 °C.

The compound `CN1Cc2csc(=S)n2-c2ccc(F)c(F)c21` showed a melting point of 165 to 167 °C.

`C=CC(=O)NCc1ccc(CC(=O)OCC)cc1` showed a melting point of 93 to 95 °C.

As to `O=C(O)CNC(=O)Nc1cccc(C(=O)O)c1`, the melting point was in the range of 196 to 197 °C.

Regarding `CSCc1cn(C)c2cc(Br)ccc2c1=O`, the melting point fell in the range of 168 to 170 °C.

`O=C(O)c1cc2cc(Cl)ccc2nn1` displayed a melting point of 207 to 208 °C.

Regarding `CS(=O)(=O)Nc1cc2occ(C#N)c(=O)c2cc1Oc1ccccc1`, the melting point was found to be 220 °C.

In the case of `O=C(O)CCCOn1nnc2ccc(Cn3ccnc3)cc21`, the melting point came out at 170 °C.

`CC(=NO)c1cccc(N)c1` registered a melting point of 133 °C.

In turn, `c1ccc2sc(N3CCNCC3)nc2c1` had a melting point of 63 to 64 °C.

As to `Nc1ncnc2c1ncn2[C@@H]1O/C(=C\F)[C@@H](O)[C@H]1O`, the melting point lay in the range of 225 to 230 °C.

For `COc1ccc(C(=O)NCC(=O)N2c3ccccc3N(Cc3ccccc3)C(=O)[C@H]3CCC[C@H]32)cc1` (relative stereo), the melting point fell in the range of 160 to 161 °C.

Take `CCOc1ccc(-c2ccc3c(c2)C=C(C(=O)Nc2ccc(CN(C)C4CCC5(CC4)OCCO5)cc2)CCS3(=O)=O)cc1`: the melting point lay in the range of 220 to 223 °C.

In turn, `Cc1cc(C2=NOC(c3cc(Cl)cc(Cl)c3)(C(F)(F)F)C2)ccc1C(=O)NCc1ccccn1` (stereo not drawn) came in with a melting point of 131 to 136 °C.

For the compound `COc1ccc2c(c1O)C13CCN(C)C(C2)C1CC(C)C(=O)C3` (stereo not drawn), the melting point is 166 to 167 °C.

Regarding `CCCCc1nc(O)c(CC(=O)O)c(=O)n1Cc1ccc(C(=O)O)cc1`, the melting point came out at 260 °C.

`COc1ccc(C)cc1NC(=O)Nc1ccc(N2CCNCC2)cc1`: the melting point was 140 °C.

In turn, `CCOC(=O)c1c(N2CCOCC2)c2cc(Cl)ccc2n(C)c1=O` registered a melting point of 167 to 169 °C.

For `COc1ccccc1C1c2cc(NC(=O)CC(C)(C)C)c(C)c(C)c2OC1(C)C` (stereo not drawn), the melting point is 169 to 170 °C.

`CCSc1nc(N)nc2c1ncn2C1C=CC(CO)C1` (stereo not drawn) had a melting point of 123 to 125 °C.

On to `COc1cc(C(=O)O)ccc1Cc1c[nH]c2ccc(NC(=O)CC3CCCC3)cc12`, for which the melting point is 218 to 219 °C.

Compound `CCCn1c2cc(C)ccc2c2oc(C(=O)Cl)cc21` had a melting point of 130 to 132 °C.

`Cc1cnn(-c2cc(F)c(C#N)cc2F)c(=O)c1` registered a melting point of 223 °C.

`COC(=O)c1ccccc1S(=O)(=O)c1ccc(/C=C/c2ccc(F)cc2)cc1` yielded a melting point of 125 °C.

`O=C(CCCN1CC=C(c2cccc3[nH]ccc23)CC1)c1ccc(F)cc1` displayed a melting point of 155 °C.

`COc1ccc(-c2sc3ccccc3c2Oc2ccc(OCc3ccccc3)cc2)cc1F` displayed a melting point of 122 to 123 °C.

Compound `CCCCCCCCNC(=O)N1CCC(S(=O)(=O)c2ccc(CCNC[C@H](O)COc3ccc4c(c3)OCO4)cc2)CC1` registered a melting point of 84 to 86 °C.

As for `CC(C)(C)C(F)(F)c1ccc(C[C@@H](NC(=O)c2ccc(F)c3ccccc23)[C@@H](O)c2cccc(Cl)c2)cc1` (racemic), the melting point lay within 104 to 106 °C.

As to `N#Cc1ccc(N(Cc2ccc(O)c(Br)c2)n2cnnc2)cc1-c1cc2ccccc2o1`, the melting point was 147 to 148 °C.

Compound `COc1ccccc1CN[C@H]1CCCN[C@H]1Cc1ccccc1` (relative stereo) displayed a melting point above 241 °C.

Turning to `C[C@@](O)(CO)COc1cccc(-c2noc3ccsc23)c1`, the melting point fell in the range of 97 to 98 °C.

`COC1=C(OC)C(=O)C(CN2CCOCC2)=C(C)C1=O`: the melting point fell in the range of 60 to 62 °C.

Consider `CN1C=C2C=C(S)N=CN2N1`, for which the melting point is above 300 °C.

`CCC(CC)Nc1c([N+](=O)[O-])cc(C)c(N)c1[N+](=O)[O-]` registered a melting point of 157 to 160 °C.

As for `C=C(C)C(=O)NC1(C(=O)O)CCCCC1`, the melting point was in the range of 176 to 178 °C.

On to `CNc1c(OC)cc(Cc2cnc(N)nc2N)cc1OC`, for which the melting point amounted to 204 °C.

The compound `CNC(=S)n1nc(Cc2ccccc2)nc1N` had a melting point of 173 to 175 °C.

`C#CC(Cn1ncnn1)n1nnc2cc3c(=O)n(C4CC4)nnc3cc2c1=O` (stereo not drawn) had a melting point of 224 to 225 °C.

For `CC(=O)Nc1[nH]cc(-c2ccc(NS(=O)(=O)c3cccc(Cl)c3Cl)cc2)c1C(N)=O`, the melting point was 265 °C.

The compound `COc1ccc(OC)c(C(O)c2cccc(N)c2)c1` (stereo not drawn) yielded a melting point of 132 to 134 °C.

Take `CCCCCCCCC=CCCCCCCCCn1c(=O)[nH][nH]c1=O`: the melting point stood at 120 °C.

`O=C(CN1c2nc(-c3ccncn3)cc(=O)n2CCC12CCN(C(=O)c1cccc(F)c1)C2)c1ccccc1` (stereo not drawn) showed a melting point of 267 to 268 °C.

`C[C@@H](NC(=O)[C@@H](NC(=O)[C@H](CCCc1ccc(-c2ccccc2)c(Cl)c1)CC(=O)NO)C(C)(C)C)c1ccccc1` showed a melting point of 107 to 109 °C.

For `C#CCNC(=C[N+](=O)[O-])NCCSCc1ncccc1Cl`, the melting point lay within 171 to 172 °C.

In turn, `CCOP(=O)(OCC)C1CCc2c([N+](=O)[O-])c(C(F)(F)F)cc3[nH]c(=O)c(=O)n1c23` (stereo not drawn) had a melting point of 254 °C.

Consider `O=c1[nH]c2ccc(C3=NOC(CN4CCC(S(=O)c5ccc(F)cc5)CC4)C3)cc2o1` (stereo not drawn), for which the melting point was in the range of 170 to 178 °C.

For `COC(=O)c1ncn(C2CCCCO2)c1CC#N` (stereo not drawn), the melting point lay within 98 to 99 °C.

Regarding `O=c1[nH]cccc1Cc1cccc(F)c1`, the melting point was 110 °C.

In turn, `COC(=O)Cc1ccc(OCCNC(=O)C2Cc3ccccc3N2S(=O)(=O)c2ccc(-c3cc(C(F)(F)F)ccc3Cl)cc2)cc1` (stereo not drawn) had a melting point of 60 °C.

`Nc1ncccc1-c1nc2ccc(-c3ccc(CO)cc3)nc2n1-c1ccc(CNC(=O)c2ccccc2)cc1` came in with a melting point of 118 to 120 °C.

On to `CCCCCC(=O)c1cccc(OCc2ccc3ccccc3n2)c1`, for which the melting point is 52 to 55 °C.

As to `CN1CCC[C@H]1c1ccc(Cl)cc1P(c1cccc2ccccc12)c1cccc2ccccc12`, the melting point lay in the range of 224 to 226 °C.

As for `C=C1C(O)C(CO)OC1n1cc(Cl)c(N)nc1=O` (stereo not drawn), the melting point fell in the range of 168 to 170 °C.

Regarding `O=C(NC1CCN(CCc2[nH]c(=O)[nH]c2-c2ccc(F)cc2)CC1)c1ccccc1`, the melting point was in the range of 218 to 220 °C.

`CCOC(=O)CC(=O)C=Cc1ccccc1[N+](=O)[O-]` yielded a melting point of 72 °C.

In turn, `COc1ccc(C(O)c2nn(C)c3c2CCc2c(C(N)=O)sc(Oc4ccc5c(c4)OCO5)c2-3)cc1` (stereo not drawn) came in with a melting point of 187 to 188 °C.

`BrCc1cccc(-c2ccccc2)c1` registered a melting point of 54 to 56 °C.

In turn, `NC(=O)N(O)Cc1ccc2c(c1)CCN2Cc1ccccc1` came in with a melting point of 107 °C.

For `Nc1ccc(-c2ccc(Cl)cc2)c(Cl)n1`, the melting point fell in the range of 178 to 182 °C.
